Assay results: PubChem BioAssay AID1963435 (Molecular Pharmacology Branch, DTP, NCI, 2024)

Test system: PANC-1 complex spheroid growth, percent test/control
Test: Anticancer human tumor PANC-1 cell line growth inhibition [Asc];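 note: spheroids exposed to agents for 7 days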;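 for viability, T/C: percent viability relative to DMSO vehicle wells taken as 100%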
Settings: for IC50: curve of first compound; for viability, T/C: stronger effect = lower value
In short: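 Spheroid model: tumor line + HUVEC + hMSC. Single agents and combinations; top conc. at/near clinical Cmax (10 microM if undetermined), half-log dilutions. DMSO stocks at 800-fold test concentration.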

## NC1CCC(NC2CC2c2ccccc2)CC1 (centres undefined) + CNC(C)C(=O)NC1CN(S(=O)(=O)c2cccc(S(=O)(=O)N3CCC4CCC(C(=O)NC(c5ccccc5)c5ccccc5)N4C(=O)C(NC(=O)C(C)NC)C3)c2)CCC2CCC(C(=O)NC(c3ccccc3)c3ccccc3)N2C1=O
Second compound 0.00316 µM
  IC50: > 0.1 µM
Second compound 0.01 µM
  IC50: > 0.1 µM
Second compound 0.0316 µM
  IC50: > 0.1 µM
Second compound 0.1 µM
  IC50: > 0.1 µM
Second compound 0.316 µM
  IC50: > 0.1 µM
Second compound 1 µM
  IC50: > 0.1 µM
Second compound 0.00316 µM, first compound 0.000316 µM
  viability, T/C: 99.3%
Second compound 0.00316 µM, first compound 0.001 µM
  viability, T/C: 94%
Second compound 0.00316 µM, first compound 0.00316 µM
  viability, T/C: 90%
Second compound 0.00316 µM, first compound 0.01 µM
  viability, T/C: 87.5%
Second compound 0.00316 µM, first compound 0.0316 µM
  viability, T/C: 99.4%
Second compound 0.00316 µM, first compound 0.1 µM
  viability, T/C: 87.8%
Second compound 0.01 µM, first compound 0.000316 µM
  viability, T/C: 95%
Second compound 0.01 µM, first compound 0.001 µM
  viability, T/C: 95.9%
Second compound 0.01 µM, first compound 0.00316 µM
  viability, T/C: 88.5%
Second compound 0.01 µM, first compound 0.01 µM
  viability, T/C: 85%
Second compound 0.01 µM, first compound 0.0316 µM
  viability, T/C: 93.5%
Second compound 0.01 µM, first compound 0.1 µM
  viability, T/C: 94.4%
Second compound 0.0316 µM, first compound 0.000316 µM
  viability, T/C: 95%
Second compound 0.0316 µM, first compound 0.001 µM
  viability, T/C: 96.8%
Second compound 0.0316 µM, first compound 0.00316 µM
  viability, T/C: 85.7%
Second compound 0.0316 µM, first compound 0.01 µM
  viability, T/C: 86.5%
Second compound 0.0316 µM, first compound 0.0316 µM
  viability, T/C: 84.5%
Second compound 0.0316 µM, first compound 0.1 µM
  viability, T/C: 93.4%
Second compound 0.1 µM, first compound 0.000316 µM
  viability, T/C: 98.9%
Second compound 0.1 µM, first compound 0.001 µM
  viability, T/C: 102%
Second compound 0.1 µM, first compound 0.00316 µM
  viability, T/C: 96.5%
Second compound 0.1 µM, first compound 0.01 µM
  viability, T/C: 93%
Second compound 0.1 µM, first compound 0.0316 µM
  viability, T/C: 92.8%
Second compound 0.1 µM, first compound 0.1 µM
  viability, T/C: 87.8%
Second compound 0.316 µM, first compound 0.000316 µM
  viability, T/C: 102%
Second compound 0.316 µM, first compound 0.001 µM
  viability, T/C: 97.9%
Second compound 0.316 µM, first compound 0.00316 µM
  viability, T/C: 108%
Second compound 0.316 µM, first compound 0.01 µM
  viability, T/C: 84.9%
Second compound 0.316 µM, first compound 0.0316 µM
  viability, T/C: 97.8%
Second compound 0.316 µM, first compound 0.1 µM
  viability, T/C: 93.5%
Second compound 1 µM, first compound 0.000316 µM
  viability, T/C: 94.6%
Second compound 1 µM, first compound 0.001 µM
  viability, T/C: 76.7%
Second compound 1 µM, first compound 0.00316 µM
  viability, T/C: 99.3%
Second compound 1 µM, first compound 0.01 µM
  viability, T/C: 85.9%
Second compound 1 µM, first compound 0.0316 µM
  viability, T/C: 90.7%
Second compound 1 µM, first compound 0.1 µM
  viability, T/C: 92.3%

## O=C(c1cc(Cc2n[nH]c(=O)c3ccccc23)ccc1F)N1CCN(C(=O)C2CC2)CC1 + CCN1C(C(=O)NC23CCC(C(=O)O)(CC2)CC3)C(c2cccc(Cl)c2F)C2(C(=O)Nc3cc(Cl)ccc32)C12CCCCC2
Second compound 0.00949 µM
  IC50: > 10 µM
Second compound 0.03 µM
  IC50: > 10 µM
Second compound 0.0949 µM
  IC50: > 10 µM
Second compound 0.3 µM
  IC50: > 10 µM
Second compound 0.949 µM
  IC50: > 10 µM
Second compound 3 µM
  IC50: > 10 µM
Second compound 0.00949 µM, first compound 0.0316 µM
  viability, T/C: 88.1%
Second compound 0.00949 µM, first compound 0.1 µM
  viability, T/C: 93.6%
Second compound 0.00949 µM, first compound 0.316 µM
  viability, T/C: 96.2%
Second compound 0.00949 µM, first compound 1 µM
  viability, T/C: 93.6%
Second compound 0.00949 µM, first compound 3.16 µM
  viability, T/C: 114%
Second compound 0.00949 µM, first compound 10 µM
  viability, T/C: 104%
Second compound 0.03 µM, first compound 0.0316 µM
  viability, T/C: 103%
Second compound 0.03 µM, first compound 0.1 µM
  viability, T/C: 98.7%
Second compound 0.03 µM, first compound 0.316 µM
  viability, T/C: 102%
Second compound 0.03 µM, first compound 1 µM
  viability, T/C: 99.4%
Second compound 0.03 µM, first compound 3.16 µM
  viability, T/C: 102%
Second compound 0.03 µM, first compound 10 µM
  viability, T/C: 97.2%
Second compound 0.0949 µM, first compound 0.0316 µM
  viability, T/C: 100%
Second compound 0.0949 µM, first compound 0.1 µM
  viability, T/C: 94.9%
Second compound 0.0949 µM, first compound 0.316 µM
  viability, T/C: 99.5%
Second compound 0.0949 µM, first compound 1 µM
  viability, T/C: 104%
Second compound 0.0949 µM, first compound 3.16 µM
  viability, T/C: 102%
Second compound 0.0949 µM, first compound 10 µM
  viability, T/C: 93.9%
Second compound 0.3 µM, first compound 0.0316 µM
  viability, T/C: 104%
Second compound 0.3 µM, first compound 0.1 µM
  viability, T/C: 97.9%
Second compound 0.3 µM, first compound 0.316 µM
  viability, T/C: 111%
Second compound 0.3 µM, first compound 1 µM
  viability, T/C: 103%
Second compound 0.3 µM, first compound 3.16 µM
  viability, T/C: 105%
Second compound 0.3 µM, first compound 10 µM
  viability, T/C: 93.2%
Second compound 0.949 µM, first compound 0.0316 µM
  viability, T/C: 101%
Second compound 0.949 µM, first compound 0.1 µM
  viability, T/C: 103%
Second compound 0.949 µM, first compound 0.316 µM
  viability, T/C: 110%
Second compound 0.949 µM, first compound 1 µM
  viability, T/C: 102%
Second compound 0.949 µM, first compound 3.16 µM
  viability, T/C: 111%
Second compound 0.949 µM, first compound 10 µM
  viability, T/C: 101%
Second compound 3 µM, first compound 0.0316 µM
  viability, T/C: 116%
Second compound 3 µM, first compound 0.1 µM
  viability, T/C: 117%
Second compound 3 µM, first compound 0.316 µM
  viability, T/C: 107%
Second compound 3 µM, first compound 1 µM
  viability, T/C: 126%
Second compound 3 µM, first compound 3.16 µM
  viability, T/C: 121%
Second compound 3 µM, first compound 10 µM
  viability, T/C: 114%
